Data reported in patent US20120040906A1, “PROTEIN TARGETS IN DISEASE” (NATIONAL UNIVERSITY OF IRELAND, GALWAY, priority 2009, published 2012).

Columns and labels:
[1] = system: H9c2 cardiomyocytes; experiment: real-time RT-PCR confirmation of microRNA expression during ER stress; format: cell-based, Rat; settings: Tg 1 μM or Tm 1 μg/ml, 24 hours; for mir-7a expression, Real-time PCR (set I) / mir-18a expression, Real-time PCR (set I) / mir-20a expression, Real-time PCR (set I) / mir-24 expression, Real-time PCR (set I) / mir-25 expression, Real-time PCR (set I) / mir-93 expression, Real-time PCR (set I) / mir-98 expression, Real-time PCR (set I) / mir-103 expression, Real-time PCR (set I) / mir-106b expression, Real-time PCR (set I) / mir-107 expression, Real-time PCR (set I) / mir-133a expression, Real-time PCR (set I) / mir-133b expression, Real-time PCR (set I) / mir-206 expression, Real-time PCR (set I) / mir-322 expression, Real-time PCR (set I) / mir-351 expression, Real-time PCR (set I): untreated control = 1.000, set I; for mir-7a expression, Real-time PCR (set II) / mir-18a expression, Real-time PCR (set II) / mir-20a expression, Real-time PCR (set II) / mir-24 expression, Real-time PCR (set II) / mir-25 expression, Real-time PCR (set II) / mir-93 expression, Real-time PCR (set II) / mir-98 expression, Real-time PCR (set II) / mir-103 expression, Real-time PCR (set II) / mir-106b expression, Real-time PCR (set II) / mir-107 expression, Real-time PCR (set II) / mir-133a expression, Real-time PCR (set II) / mir-133b expression, Real-time PCR (set II) / mir-206 expression, Real-time PCR (set II) / mir-322 expression, Real-time PCR (set II) / mir-351 expression, Real-time PCR (set II): untreated control = 1.000, set II
Description: Expression of muscle specific microRNAs; mir-206, mir-133a and mir-133b and several members of mir-17-92 oncogenic cluster were repressed during conditions of ER stress. Based on their differential expression profile during ER stress and their hitherto unexplored role in cardiovascular biology mir-7a, mir-351 and mir-322 were identified as primary microRNA targets in conditions of ER stress. In addition, the invention has been extended to the human ortholog, miR-125, of rat miR-351. Similarly, the invention extends to the human ortholog, miR-424, of rat miR-322. […], and hsa-miR-424 & rno-miR-322 are microRNAs having similar seed sequences in humans and rats respectively.
(§1) Control, Untreated; Tg, thapsigargin (1 μM) for 24 hours, Tm, tunicamycin (1 μg/ml) for 24 hours. mir-7a, mir-351 and mir-322 are shown in bold face.

[2] = system: H9c2 cells; experiment: RT-PCR for induction of Grp78/BiP; format: cell-based; settings: 1 μM Tg, 1 μg/ml Tm for 24 hr, three independent experiments
Method: (§2) Expression profiling of microRNAs during the conditions of Endoplasmic Reticulum (ER) stress in cardiomyocytes was performed. ER stress was induced by treatment with either thapsigargin, an inhibitor of the Sacroplasmic/Endoplasmic Reticulum Ca2+ATPase (SERCA) pump or tunicamycin (an inhibitor of N-linked glycosylation). RNA was isolated from three independent experiments where H9c2 cells were treated with thapsigargin (Tg) or tunicamycin (Tm) for 24 hours. RNAs from Tg and Tm treated cells were checked for induction of key ER resident chaperone Grp78/BiP by RT-PCR. Grp78/BiP is a central regulator of ER homeostasis due to its multiple functional roles in protein folding, ER calcium binding, and controlling of the activation of transmembrane ER stress sensors. […] Total RNA was isolated from H9c2 cells treated with 1 μM Tg, 1 μg/ml Tm for 24 hr and the expression levels of the indicated genes were analysed by RT-PCR.

[3] = system: H9c2 cardiomyocytes; experiment: microarray analysis of microRNA expression during ER stress; format: cell-based, Rat; settings: Tg 1 μM or Tm 1 μg/ml, 24 hours, untreated control = 1.000
Method: as §2
Next equal amounts of RNAs from each experiment were pooled and used for microarray analysis to minimize experimental variations. The experimental outline for the microarray analysis is illustrated in FIG. 2. The chips were spotted with 350 mature microRNAs of Rat as per Sanger miRBase database (Release 11.0). Each microRNA was spotted on the array nine times and for each RNA sample two chips were used. There were 16 sets of control probes on each array. There were greater than 10 positive controls (spike-in controls & 5S). There were greater than 10 negative controls (mismatch control). A 20-mer control RNA is spiked into each sample followed by labeling and hybridization. The control RNA had been computationally and experimentally verified not to cross-hybridize with the probes of any known microRNA transcript. The background-subtracted signals were used for statistical tests and clustering analysis.
as §1

tunicamycin [Tm]
mir-7a expression, Real-time PCR (set I) [1]: 1.140
mir-18a expression, Real-time PCR (set I) [1]: 1.090
mir-20a expression, Real-time PCR (set I) [1]: 1.340
mir-24 expression, Real-time PCR (set I) [1]: 0.930
mir-25 expression, Real-time PCR (set I) [1]: 0.906
mir-93 expression, Real-time PCR (set I) [1]: 0.800
mir-98 expression, Real-time PCR (set I) [1]: 1.480
mir-103 expression, Real-time PCR (set I) [1]: 0.960
mir-106b expression, Real-time PCR (set I) [1]: 1.060
mir-107 expression, Real-time PCR (set I) [1]: 0.590
mir-133a expression, Real-time PCR (set I) [1]: 0.750
mir-133b expression, Real-time PCR (set I) [1]: 0.480
mir-206 expression, Real-time PCR (set I) [1]: 0.570
mir-322 expression, Real-time PCR (set I) [1]: 0.840
mir-351 expression, Real-time PCR (set I) [1]: 0.290
mir-7a expression, Real-time PCR (set II) [1]: 1.650
mir-18a expression, Real-time PCR (set II) [1]: 0.640
mir-20a expression, Real-time PCR (set II) [1]: 0.650
mir-24 expression, Real-time PCR (set II) [1]: 0.760
mir-25 expression, Real-time PCR (set II) [1]: 0.760
mir-93 expression, Real-time PCR (set II) [1]: 0.550
mir-98 expression, Real-time PCR (set II) [1]: 0.750
mir-103 expression, Real-time PCR (set II) [1]: 0.500
mir-106b expression, Real-time PCR (set II) [1]: 0.737
mir-107 expression, Real-time PCR (set II) [1]: 0.630
mir-133a expression, Real-time PCR (set II) [1]: 0.730
mir-133b expression, Real-time PCR (set II) [1]: 0.510
mir-206 expression, Real-time PCR (set II) [1]: 0.604
mir-322 expression, Real-time PCR (set II) [1]: 0.610
mir-351 expression, Real-time PCR (set II) [1]: 0.230
induction of ER resident chaperone Grp78/BiP by RT-PCR [2]: induction of Grp78/BiP in all three experiments
mir-7a expression, Microarray Analysis [3]: 2.458
mir-18a expression, Microarray Analysis [3]: 0.550
mir-20a expression, Microarray Analysis [3]: 0.791
mir-24 expression, Microarray Analysis [3]: 0.672
mir-25 expression, Microarray Analysis [3]: 0.771
mir-93 expression, Microarray Analysis [3]: 0.524
mir-98 expression, Microarray Analysis [3]: 4.921
mir-103 expression, Microarray Analysis [3]: 0.571
mir-106b expression, Microarray Analysis [3]: 0.672
mir-107 expression, Microarray Analysis [3]: 0.601
mir-133a expression, Microarray Analysis [3]: 0.690
mir-133b expression, Microarray Analysis [3]: 0.641
mir-206 expression, Microarray Analysis [3]: 0.607
mir-322 expression, Microarray Analysis [3]: 0.113
mir-351 expression, Microarray Analysis [3]: 0.179

C/C=C(/C)C(=O)O[C@H]1C(C)=C2[C@H]([C@@H]1OC(=O)CCCCCCC)[C@@](C)(OC(C)=O)C[C@H](OC(=O)CCC)[C@@]1(O)[C@H]2OC(=O)[C@@]1(C)O [Tg, thapsigargin]
mir-7a expression, Real-time PCR (set I) [1]: 1.540
mir-18a expression, Real-time PCR (set I) [1]: 0.720
mir-20a expression, Real-time PCR (set I) [1]: 0.930
mir-24 expression, Real-time PCR (set I) [1]: 0.810
mir-25 expression, Real-time PCR (set I) [1]: 0.790
mir-93 expression, Real-time PCR (set I) [1]: 0.660
mir-98 expression, Real-time PCR (set I) [1]: 1.470
mir-103 expression, Real-time PCR (set I) [1]: 0.860
mir-106b expression, Real-time PCR (set I) [1]: 0.820
mir-107 expression, Real-time PCR (set I) [1]: 0.580
mir-133a expression, Real-time PCR (set I) [1]: 0.720
mir-133b expression, Real-time PCR (set I) [1]: 0.470
mir-206 expression, Real-time PCR (set I) [1]: 0.540
mir-322 expression, Real-time PCR (set I) [1]: 0.830
mir-351 expression, Real-time PCR (set I) [1]: 0.210
mir-7a expression, Real-time PCR (set II) [1]: 3.800
mir-18a expression, Real-time PCR (set II) [1]: 0.700
mir-20a expression, Real-time PCR (set II) [1]: 0.620
mir-24 expression, Real-time PCR (set II) [1]: 0.870
mir-25 expression, Real-time PCR (set II) [1]: 0.799
mir-93 expression, Real-time PCR (set II) [1]: 0.530
mir-98 expression, Real-time PCR (set II) [1]: 0.850
mir-103 expression, Real-time PCR (set II) [1]: 0.590
mir-106b expression, Real-time PCR (set II) [1]: 0.800
mir-107 expression, Real-time PCR (set II) [1]: 0.800
mir-133a expression, Real-time PCR (set II) [1]: 1.140
mir-133b expression, Real-time PCR (set II) [1]: 0.680
mir-206 expression, Real-time PCR (set II) [1]: 0.820
mir-322 expression, Real-time PCR (set II) [1]: 0.690
mir-351 expression, Real-time PCR (set II) [1]: 0.210
induction of ER resident chaperone Grp78/BiP by RT-PCR [2]: induction of Grp78/BiP in all three experiments
mir-7a expression, Microarray Analysis [3]: 1.341
mir-18a expression, Microarray Analysis [3]: 0.426
mir-20a expression, Microarray Analysis [3]: 0.770
mir-24 expression, Microarray Analysis [3]: 0.664
mir-25 expression, Microarray Analysis [3]: 0.633
mir-93 expression, Microarray Analysis [3]: 0.583
mir-98 expression, Microarray Analysis [3]: 3.822
mir-103 expression, Microarray Analysis [3]: 0.654
mir-106b expression, Microarray Analysis [3]: 0.638
mir-107 expression, Microarray Analysis [3]: 0.682
mir-133a expression, Microarray Analysis [3]: 0.595
mir-133b expression, Microarray Analysis [3]: 0.565
mir-206 expression, Microarray Analysis [3]: 0.683
mir-322 expression, Microarray Analysis [3]: 0.094
mir-351 expression, Microarray Analysis [3]: 0.141
